In article PMC5852498, “Lactomycins A–C, Dephosphorylated Phoslactomycin Derivatives That Inhibit Cathepsin B, from the Marine-Derived Streptomyces sp. ACT232” (Marine Drugs, 2018):
Like-named read-outs stand apart in the source and are kept apart here.

Target: T1, cathepsin B (Bos taurus, UniProt P07688)
T1 construct: gene CTSB; cathepsin B from bovine spleen (Sigma C6286)
Assay: fluorogenic enzyme assay with Z-Arg-Arg-AMC, pH […] °C
Format: biochemical

SMILES | IC50 (read-out: IC50) [nM] | IC50 [nM]
CC[C@H]1C=CC(=O)O[C@H]1/C=C/[C@](O)(CCO)[C@H](O)C[C@@H](O)/C=C\C=C/[C@@H]1CCC[C@H](O)C1 [compound 1, Lactomycin A] | 4500 | –
CC[C@H]1C=CC(=O)O[C@H]1/C=C/[C@](O)(CCN)[C@H](O)C[C@@H](O)/C=C\C=C/[C@@H]1CCC[C@H](O)C1 [compound 2, Lactomycin B] | 800 | –
CC[C@H]1C=CC(=O)O[C@H]1/C=C/[C@@](C)(O)[C@H](O)C[C@@H](O)/C=C\C=C/[C@@H]1CCC[C@H](O)C1 [compound 3, Lactomycin C] | – | 1600
